Experiments:
[1] = test system: CD8+ T-cells; assay: Immunostimulation assay with anti-CD3/28 stimulated T-cells, CD69 expression by flow cytometry; assay type: cell-based, human; details: T-cell; purified human CD4+ and CD8+ T-cells, 1 µg/ml anti-CD3, 1 µg/ml anti-CD28, 16 hours, surface FACS; read-out: EC50 CD8+
Description: (§1) Selection of potent compounds based on structure activity relation (SAR) using human, anti-CD3/28 stimulated T-cells. Enhanced activation of stimulated T-cells is measured by CD69 expression by flowcytometry.
(§2) White blood cell enriched buffy coats were ordered from the Austrian red cross, diluted with PBS to a total volume of 480 ml, 30 ml transferred to 50ml falcons and 11 ml lymphoprep added. Cell suspensions were centrifuged for 20 min at 2200 rpm and the PBMC containing layer transferred, three times washed with PBS and counted.
(§3) 10^7 PBMCs were magnetically labeled with CD4 and CD8 microbeads according to manufacturer's instructions and separated using autoMACS device. For dose response experiments with purified CD4+CD8+ T-cells 80000 cells were seeded per 96-well flat bottom cell culture dish.
(§4) 10 mM compounds of the invention stocks were further diluted using DMSO and equal amounts transferred to T-cell containing 96-wells. Final concentrations tested were: 30 µM, 10 µM, 3 µM, 1 µM, 0.3 µM, 0.1 µM, 0.03 µM, 0.01 µM, 0.003 µM and 0.001 µM.
(§5) For the stimulation assays 80.000 purified CD4+ and CD8+ T-cells were seeded per 96-well and incubated with 1 µg/ml anti-CD3, 1 µg/ml anti-CD28 and compounds of the invention ranging from 0.001 µM to 30 µM. DMSO only wells served as control to determine minimal T-cell activation upon stimulation and CD3/28 coupled Dynabeads were used to determine the maximal activation of T-cells. Cells were cultured for 16 hours in a humidified incubator at 37 °C and 5 % CO2.
(§6) T-cells were stained for surface antigens (anti-CD4 and anti-CD8) and cell activation markers (anti-CD25 and anti-CD69). Additionally, a fixable viability dye was used to stain viable cells. Staining was performed for 15 minutes and cells analyzed using a Fortessa flow cytometer and FlowJo Software. EC50s were calculated using GraphPad Prism® and a variable slope model (agonist vs. response - variable slope).

[2] = test system: CD4+ T-cells; assay: as above; assay type: cell-based, human; details: T-cell; purified human CD4+ and CD8+ T-cells, 1 µg/ml anti-CD3, 1 µg/ml anti-CD28, 16 hours, surface FACS; read-out: EC50 CD4+
Description: as §1, §2, §3, §4, §5, §6

SMILES | EC50 [1] | EC50 [2]
COc1ccc(COc2ccc(-c3nc4c(c(=O)[nH]c(=O)n4CC(C)O)n3C)cc2F)cc1 (stereo not shown) [Compound 114, 8-(3-fluoro-4-((4-methoxybenzyl)oxy)phenyl)-3-(2-hydroxypropyl)-7-methyl-3,7-dihydro-1H-purine-2,6-dione] | 1000 to 5000 nM | 1000 to 5000 nM
CC(O)Cn1c(=O)[nH]c(=O)c2c1nc(-c1ccc(OCc3ccccc3)c(OC(F)(F)F)c1)n2C (stereo not shown) [Compound 120, 8-(4-(benzyloxy)-3-(trifluoromethoxy)phenyl)-3-(2-hydroxypropyl)-7-methyl-3,7-dihydro-1H-purine-2,6-dione] | 100 to 500 nM | 100 to 500 nM
Cc1ccc(COc2ccc(-c3nc4c(c(=O)[nH]c(=O)n4CC(C)O)n3C)cc2OC(F)(F)F)cc1 (stereo not shown) [Compound 122, 3-(2-hydroxypropyl)-7-methyl-8-(4-((4-methylbenzyl)oxy)-3-(trifluoromethoxy)phenyl)-3,7-dihydro-1H-purine-2,6-dione] | < 100 nM | < 100 nM
Cc1cc(-c2nc3c(c(=O)[nH]c(=O)n3CC(C)O)n2C)ccc1OCc1ccccc1 (stereo not shown) [Compound 124, 8-(4-(benzyloxy)-3-methylphenyl)-3-(2-hydroxypropyl)-7-methyl-3,7-dihydro-1H-purine-2,6-dione] | 100 to 500 nM | 100 to 500 nM
COc1cc(-c2nc3c(c(=O)[nH]c(=O)n3CC(C)O)n2C)ccc1OCc1ccc(C)cc1 (stereo not shown) [Compound 125, 3-(2-hydroxypropyl)-8-(3-methoxy-4-((4-methylbenzyl)oxy)phenyl)-7-methyl-3,7-dihydro-1H-purine-2,6-dione] | 100 to 500 nM | 100 to 500 nM
CC(O)Cn1c(=O)[nH]c(=O)c2c1nc(-c1ccc(Oc3ccc(Cl)cc3)cc1)n2C (stereo not shown) [Compound 138, 8-(4-(4-chlorophenoxy)phenyl)-3-(2-hydroxypropyl)-7-methyl-3,7-dihydro-1H-purine-2,6-dione] | 1000 to 5000 nM | 1000 to 5000 nM
Cn1c(-c2ccc(Oc3ccc(Cl)cc3)c(Cl)c2)nc2c1c(=O)[nH]c(=O)n2CC(O)CF (stereo not shown) [Compound 147, 8-(3-chloro-4-(4-chlorophenoxy)phenyl)-3-(3-fluoro-2-hydroxypropyl)-7-methyl-3,7-dihydro-1H-purine-2,6-dione] | < 100 nM | < 100 nM
Cn1c(-c2ccc(Oc3ccc(OC(F)F)cc3)c(Cl)c2)nc2c1c(=O)[nH]c(=O)n2CC(O)CF (stereo not shown) [Compound 148, 8-(3-chloro-4-(4-(difluoromethoxy)phenoxy)phenyl)-3-(3-fluoro-2-hydroxypropyl)-7-methyl-3,7-dihydro-1H-purine-2,6-dione] | 100 to 500 nM | 100 to 500 nM
Cn1c(-c2ccc(Oc3ccc(OC(F)(F)F)cc3)c(F)c2)nc2c1c(=O)[nH]c(=O)n2CC(O)CF (stereo not shown) [Compound 149, 3-(3-fluoro-2-hydroxypropyl)-8-(3-fluoro-4-(4-(trifluoromethoxy)phenoxy)phenyl)-7-methyl-3,7-dihydro-1H-purine-2,6-dione] | 100 to 500 nM | 100 to 500 nM
CC(CO)Cn1c(=O)[nH]c(=O)c2c1nc(-c1ccc(Oc3ccc(Cl)cc3)c(Cl)c1)n2C (stereo not shown) [Compound 150, 8-(3-chloro-4-(4-chlorophenoxy)phenyl)-3-(3-hydroxy-2-methylpropyl)-7-methyl-3,7-dihydro-1H-purine-2,6-dione] | 100 to 500 nM | 500 to 1000 nM
CC(CO)Cn1c(=O)[nH]c(=O)c2c1nc(-c1ccc(Oc3ccc(OC(F)(F)F)cc3)c(F)c1)n2C (stereo not shown) [Compound 152, 8-(3-fluoro-4-(4-(trifluoromethoxy)phenoxy)phenyl)-3-(3-hydroxy-2-methylpropyl)-7-methyl-3,7-dihydro-1H-purine-2,6-dione] | 100 to 500 nM | 100 to 500 nM

Now from value to compound:

EC50 [1] | EC50 [2] | SMILES
500 to 1000 nM | 500 to 1000 nM | Cc1ccc(COc2ccc(-c3nc4c(c(=O)[nH]c(=O)n4CC(C)O)n3C)cc2F)cc1 (stereo not shown) [Compound 115, 8-(3-fluoro-4-((4-methylbenzyl)oxy)phenyl)-3-(2-hydroxypropyl)-7-methyl-3,7-dihydro-1H-purine-2,6-dione]
500 to 1000 nM | 500 to 1000 nM | Cn1c(-c2ccc(OCc3ccccc3)c(OC(F)(F)F)c2)nc2c1c(=O)[nH]c(=O)n2CC(O)CO (stereo not shown) [Compound 116, 8-(4-(benzyloxy)-3-(trifluoromethoxy)phenyl)-3-(2,3-dihydroxypropyl)-7-methyl-3,7-dihydro-1H-purine-2,6-dione]
< 100 nM | < 100 nM | Cn1c(-c2ccc(OCc3ccccc3)c(OC(F)(F)F)c2)nc2c1c(=O)[nH]c(=O)n2CC(O)CF (stereo not shown) [Compound 117, 8-(4-(benzyloxy)-3-(trifluoromethoxy)phenyl)-3-(3-fluoro-2-hydroxypropyl)-7-methyl-3,7-dihydro-1H-purine-2,6-dione]
100 to 500 nM | < 100 nM | CC(CO)Cn1c(=O)[nH]c(=O)c2c1nc(-c1ccc(OCc3ccccc3)c(OC(F)(F)F)c1)n2C (stereo not shown) [Compound 118, 8-(4-(benzyloxy)-3-(trifluoromethoxy)phenyl)-3-(3-hydroxy-2-methylpropyl)-7-methyl-3,7-dihydro-1H-purine-2,6-dione]
< 100 nM | < 100 nM | Cn1c(-c2ccc(OCc3ccccc3)c(OC(F)(F)F)c2)nc2c1c(=O)[nH]c(=O)n2CC(O)C(F)(F)F (stereo not shown) [Compound 119, 8-(4-(benzyloxy)-3-(trifluoromethoxy)phenyl)-7-methyl-3-(3,3,3-trifluoro-2-hydroxypropyl)-3,7-dihydro-1H-purine-2,6-dione]
< 100 nM | < 100 nM | COc1cc(-c2nc3c(c(=O)[nH]c(=O)n3CC(O)C(F)(F)F)n2C)ccc1OCc1ccc(C)cc1 (stereo not shown) [Compound 121, 8-(3-methoxy-4-((4-methylbenzyl)oxy)phenyl)-7-methyl-3-(3,3,3-trifluoro-2-hydroxypropyl)-3,7-dihydro-1H-purine-2,6-dione]
< 100 nM | < 100 nM | Cc1ccc(COc2ccc(-c3nc4c(c(=O)[nH]c(=O)n4CC(C)O)n3C)cc2C(F)(F)F)cc1 (stereo not shown) [Compound 123, 3-(2-hydroxypropyl)-7-methyl-8-(4-((4-methylbenzyl)oxy)-3-(trifluoromethyl)phenyl)-3,7-dihydro-1H-purine-2,6-dione]
100 to 500 nM | 500 to 1000 nM | COc1ccc(COc2ccc(-c3nc4c(c(=O)[nH]c(=O)n4CC(C)O)n3C)cc2OC)cc1F (stereo not shown) [Compound 126, 8-(4-((3-fluoro-4-methoxybenzyl)oxy)-3-methoxyphenyl)-3-(2-hydroxypropyl)-7-methyl-3,7-dihydro-1H-purine-2,6-dione]
500 to 1000 nM | 500 to 1000 nM | COc1cc(COc2ccc(-c3nc4c(c(=O)[nH]c(=O)n4CC(C)O)n3C)cc2OC)ccc1F (stereo not shown) [Compound 127, 8-(4-((4-fluoro-3-methoxybenzyl)oxy)-3-methoxyphenyl)-3-(2-hydroxypropyl)-7-methyl-3,7-dihydro-1H-purine-2,6-dione]
1000 to 5000 nM | 1000 to 5000 nM | COc1ccc(COc2ccc(-c3nc4c(c(=O)[nH]c(=O)n4CC(C)O)n3C)cc2OC)cc1 (stereo not shown) [Compound 128, 3-(2-hydroxypropyl)-8-(3-methoxy-4-((4-methoxybenzyl)oxy)phenyl)-7-methyl-3,7-dihydro-1H-purine-2,6-dione]
1000 to 5000 nM | 1000 to 5000 nM | CC(O)Cn1c(=O)[nH]c(=O)c2c1nc(-c1ccc(Oc3ccc(C(F)(F)F)cc3)cc1)n2C (stereo not shown) [Compound 136, 3-(2-hydroxypropyl)-7-methyl-8-(4-(4-(trifluoromethyl)phenoxy)phenyl)-3,7-dihydro-1H-purine-2,6-dione]
1000 to 5000 nM | 1000 to 5000 nM | CC(O)Cn1c(=O)[nH]c(=O)c2c1nc(-c1ccc(Oc3ccccc3)c(Cl)c1)n2C (stereo not shown) [Compound 141, 8-(3-chloro-4-phenoxyphenyl)-3-(2-hydroxypropyl)-7-methyl-3,7-dihydro-1H-purine-2,6-dione]
100 to 500 nM | 100 to 500 nM | CC(CO)Cn1c(=O)[nH]c(=O)c2c1nc(-c1ccc(Oc3ccc(OC(F)F)cc3)c(Cl)c1)n2C (stereo not shown) [Compound 151, 8-(3-chloro-4-(4-(difluoromethoxy)phenoxy)phenyl)-3-(3-hydroxy-2-methylpropyl)-7-methyl-3,7-dihydro-1H-purine-2,6-dione]
100 to 500 nM | 100 to 500 nM | Cn1c(-c2ccc(Oc3ccc(Cl)cc3)c(Cl)c2)nc2c1c(=O)[nH]c(=O)n2CC(O)C(F)(F)F (stereo not shown) [Compound 153, 8-(3-chloro-4-(4-chlorophenoxy)phenyl)-7-methyl-3-(3,3,3-trifluoro-2-hydroxypropyl)-3,7-dihydro-1H-purine-2,6-dione]
1000 to 5000 nM | 1000 to 5000 nM | CC(O)Cn1c(=O)[nH]c(=O)c2c1nc(-c1ccc(Oc3ccc(OC(F)(F)F)cc3)c(C(F)(F)F)c1)n2C (stereo not shown) [Compound 155, 3-(2-hydroxypropyl)-7-methyl-8-(4-(4-(trifluoromethoxy)phenoxy)-3-(trifluoromethyl)phenyl)-3,7-dihydro-1H-purine-2,6-dione]

From patent EP4389749A1, “SUBSTITUTED 3,7-DIHYDRO-1H-PURINE-2,6-DIONES AND USE THEREOF” (invIOs GmbH, priority 2022, dated 2024)
